# From patent US20090004185A1, “AMINO-SUBSTITUTED QUINAZOLINE DERIVATIVES AS INHIBITORS OF BETA-CATENIN/TCF-4 PATHWAY AND CANCER TREATMENT AGENTS” (WYETH, priority 2007, published 2009)
# Key:
# [1] = test system: SV40-Luc; assay: SV40-Luc control luciferase reporter assay, SV 5A8 cell line (SV40-Luc and SV40-R-Luc), control for non-specific inhibitors; assay type: cell-based, human; settings: SV 5A8 cells derived from SW480, 24 hours of incubation with compound, ratio Firefly/Renilla luciferase
# Excerpt: Background cell line: SW480 colorectal carcinoma DNA constructs: […]
# (§1) 2) SV40-Luc: SV40 binding site driving Firefly Luciferase in the pGL3 vector—as a control for non-specific inhibitors; and
# (§2) 3) SV40-R-Luc: SV40 binding site driving Renilla Luciferase in the pGL3 vector—as an internal control for cell number and toxicity.
# This screen uses 3 cell lines derived from SW480 and selected to contain the above luciferase reporters integrated into their chromosomes as follows:
# SV 5A8—SV40-Luc and SV40-R-Luc
# (§3) Cells: Tcf22C11 and SV5A8 were grown in the presence of 500 μg/ml G418 and Tcf 33.13 was grown in the presence of 500 μg/ml G418+125 μg/ml Zeocin to maintain the integrated reporters. The cells were trypsinized and plated at 1×10^4 cells/well in opaque 96 well plates.
# (§4) Compounds: 20-24 hours after cell plating, compounds were added at titrated concentrations between 10 μg/ml and 10 μg/ml. The compounds were diluted as follows: The compounds were stored frozen in dimethyl sulfoxide (DMSO) at […]. Compounds were initially titrated in DMSO to make a 1000×DMSO stock solution. Compounds were then diluted 1:25 into media/DMSO (DMEM+10% FBS+9% DMSO). Using the Biomek Multimek, the diluted compounds were mixed well and immediately added to the plated cells in a 1:40 dilution. The final concentration of DMSO in the assay plates was 0.316% DMSO.
# (§5) Assay Readout: The luciferase signal was detected using a luciferase detection kit from Promega. Until December 2003, Promega's Dual-Luciferase® Reporter (DLR™) Assay System was used to detect luciferase activity. Briefly, after 24 hours of incubation with compound, culture media was removed by aspiration and 20 ul of passive lysis buffer (Promega) per well was added. The plates were shaken for 15 min. Firefly substrate was then added and the resulting luminescence was immediately read on a CCD camera imaging device or a luminometer. After quantifying the firefly luminescence, the reaction was quenched, and the Renilla luciferase reaction was initiated simultaneously by adding Stop & Glo® Reagent to the same sample. Renilla luciferase was then quantified using the CCD camera or luminometer.
# (§6) Promega's Dual-Glo™ Luciferase Assay System can be used for luciferase detection. It was similar to the DLR Assay, however, unlike the DLR which has to be read immediately due to decaying signal, the signal in the Dual-Glo™ Luciferase Assay was stable for up to 2 hours. Briefly, after 24 hours of incubation with compound, culture media was removed by aspiration and 75 ul of fresh medium was added. Add 75 ul of Dual-Glo Luciferase Reagent (Promega) to each well and mix by shaking for 10 minutes on a plate shaker. Then, measure the firefly luminescence on a CCD camera imaging device or a luminometer. After quantifying the firefly luminescence, add 75 ul of Dual-Glo Stop & Glo Reagent (Promega) to each well and mix for 10 minutes. Renilla luciferase was then quantified using the CCD camera or luminometer.
# (§7) This assay was meant to confirm primary leads and determine IC50s. Compounds were tested at titrated dilutions. The raw data for this assay was reported in protocol 2463-B. Protocol 2463-C contains the IC50 calculations based on the raw data. The data calculations were done as follows:
# (§8) The data was expressed as % of control for both Firefly and Renilla Luciferase. The ratio of FF/Renilla (F/R) was then calculated and averaged between duplicate plates. The data was then plotted using LSW Data Analysis in Microsoft Excel. IC50s were determined by plotting the data in the LSW Data Analysis program using model 33. The IC50s (nM) for all three cell lines were reported.
# [2] = test system: β-catenin/Tcf-4; assay: cells; assay type: cell-based; settings: 24 hours of incubation with compound, ratio Firefly/Renilla luciferase
# Excerpt: Background cell line: SW480 colorectal carcinoma DNA constructs:
# 1) Tcf-4-Luc: Tcf-4 binding sites driving Firefly Luciferase in the pGL3 vector—to measure the activity of β-catenin/Tcf-4;
# as §1, §2
# This screen uses 3 cell lines derived from SW480 and selected to contain the above luciferase reporters integrated into their chromosomes as follows: […]
# as §3
# as §4, with “The” for “Compounds: 20-24 hours after cell plating, compounds were added at titrated concentrations between 10 μg/ml and 10 μg/ml. The”
# as §5
# as §6, with “It was similar to the DLR Assay, however, unlike the DLR which has to be read immediately due to decaying signal, the signal in the Dual-Glo™ Luciferase Assay was stable for up to 2 hours.” left out
# as §7, §8
# [3] = Homo sapiens, SW480, 24 h, Tcf 33.13 cells derived from SW480
# [4] = Homo sapiens, Tcf22C11, 24 h, Tcf 22C11 cells derived from SW480
"IC50 ([1]; Homo sapiens, SV5A8, 24 h) [nM]","IC50 [2, 3] [nM]","IC50 [2, 4] [nM]",Molecule,also measured
,,,4-chloro-2-fluoro-N-[4-({[6-methyl-2-(methylamino)quinazolin-4-yl]amino}methyl)phenyl]benzamide [Example 26],IC50 [1]: > 2780 nM; IC50 ([2]; Tcf 22C11 cells derived from SW480): 739 nM; IC50 ([2]; Tcf 33.13 cells derived from SW480): 614 nM
> 23900,> 2980,> 2980,"CNc1nc(NCc2ccc(NC(=O)c3cccnc3Cl)cc2)c2ccccc2n1 [Example 7, 2-chloro-N-[4-({[2-(methylamino)quinazolin-4-yl]amino}methyl)phenyl]nicotinamide]",
> 5300,1530,1770,"CNc1nc(NCc2ccc(NC(=O)c3cc(F)c(Cl)nc3Cl)cc2)c2ccccc2n1 [Example 8, 2,6-dichloro-5-fluoro-N-[4-({[2-(methylamino)quinazolin-4-yl]amino}methyl)phenyl]nicotinamide]",
1520,1070,888,"CNc1nc(NCc2ccc(NC(=O)c3ccc(Cl)nc3)cc2)c2cc(OC)c(OC)cc2n1 [Example 9, 6-chloro-N-[4-({[6,7-dimethoxy-2-(methylamino)quinazolin-4-yl]amino}methyl)phenyl]nicotinamide]",
> 2870,1290,891,"CNc1nc(NCc2ccc(NC(=O)c3ccc(Cl)cc3F)cc2)c2ccccc2n1 [Example 14, 4-chloro-2-fluoro-N-[4-({[2-(methylamino)quinazolin-4-yl]amino}methyl)phenyl]benzamide]",
> 2760,1820,> 2760,"CNc1nc(NCc2ccc(NC(=O)c3ccc(Cl)cc3Cl)cc2)c2ccccc2n1 [Example 16, 2,4-dichloro-N-[4-({[2-(methylamino)quinazolin-4-yl]amino}methyl)phenyl]benzamide]",
> 12000,> 6020,7510,"CNc1nc(NCc2ccc(NC(=O)c3ccc(F)c(C)c3)cc2)c2ccccc2n1 [Example 17, 4-fluoro-3-methyl-N-[4-({[2-(methylamino)quinazolin-4-yl]amino}methyl)phenyl]benzamide]",
> 21400,12800,> 21400,"CNc1nc(NCc2ccc(NC(=O)c3ccc(Cl)cc3Cl)cc2)c2cc(C)ccc2n1 [Example 19, 2,4-dichloro-N-[4-({[6-methyl-2-(methylamino)quinazolin-4-yl]amino}methyl)phenyl]benzamide]",
> 2670,1230,1380,"CNc1nc(NCc2ccc(NC(=O)c3ccc(OC(F)(F)F)cc3)cc2)c2ccccc2n1 [Example 22, N-[4-({[2-(methylamino)quinazolin-4-yl]amino}methyl)phenyl]-4-(trifluoromethoxy)benzamide]",
> 5590,1720,1880,"CNc1nc(NCc2ccc(NC(=O)c3ccc(Cl)nc3)cc2)c2cc(C)cc(C)c2n1 [Example 23, 6-chloro-N-[4-({[6,8-dimethyl-2-(methylamino)quinazolin-4-yl]amino}methyl)phenyl]nicotinamide]",
> 5920,2960,2710,"CNc1nc(NCc2ccc(NC(=O)c3ccc(C#N)cc3)cc2)c2cc(C)ccc2n1 [Example 25, 4-cyano-N-[4-({[6-methyl-2-(methylamino)quinazolin-4-yl]amino}methyl)phenyl]benzamide]",
> 2910,,,"Cc1ccc2c(NCc3ccc(NC(=O)c4ccc(F)cc4)cc3)nc(N(C)C)nc2c1 [Example 199, N-[4-({[2-(dimethylamino)-7-methylquinazolin-4-yl]amino}methyl)phenyl]-4-fluorobenzamide]",
> 2830,,,"Cc1ccc2c(NCc3ccc(NC(=O)c4ccc(F)cc4)cc3)nc(N3CCC3)nc2c1 [Example 202, N-(4-{[(2-azetidin-1-yl-7-methylquinazolin-4-yl)amino]methyl}phenyl)-4-fluorobenzamide]",
> 10300,,,"Cc1ccc2c(NCc3ccc(NC(=O)c4ccc(F)cc4)cc3)nc(N3CCN(C)CC3)nc2c1 [Example 204, 4-fluoro-N-[4-({[7-methyl-2-(4-methylpiperazin-1-yl)quinazolin-4-yl]amino}methyl)phenyl]benzamide]",
> 2660,,,"Cc1ccc2c(NCc3ccc(NC(=O)c4ccc(F)cc4)cc3)nc(N3CCCCC3)nc2c1 [Example 206, 4-fluoro-N-(4-{[(7-methyl-2-piperidin-1-ylquinazolin-4-yl)amino]methyl}phenyl)benzamide]",
> 10600,,,"Cc1ccc2c(NCc3ccc(NC(=O)c4ccc(F)cc4)cc3)nc(N3CCOCC3)nc2c1 [Example 207, 4-fluoro-N-(4-{[(7-methyl-2-morpholin-4-ylquinazolin-4-yl)amino]methyl}phenyl)benzamide]",
> 2660,,,"Cc1ccc2c(NCc3ccc(NC(=O)c4ccc(F)cc4)cc3)nc(N3CCNCC3)nc2c1 [Example 208, 4-fluoro-N-(4-{[(7-methyl-2-piperazin-1-ylquinazolin-4-yl)amino]methyl}phenyl)benzamide]",
> 2740,,,"Cc1ccc2c(NCc3ccc(NC(=O)c4ccc(F)cc4)cc3)nc(N3CCCC3)nc2c1 [Example 209, 4-fluoro-N-(4-{[(7-methyl-2-pyrrolidin-1-ylquinazolin-4-yl)amino]methyl}phenyl)benzamide]",
> 2580,,,"Cc1ccc2c(NCc3ccc(NC(=O)c4ccc(F)cc4)cc3)nc(N3CCN[C@H](C)C3)nc2c1 [Example 225, 4-fluoro-N-{4-[({7-methyl-2-[(3R)-3-methylpiperazin-1-yl]quinazolin-4-yl}amino)methyl]phenyl}benzamide]",
> 752,,,"CNc1nc(NCc2ccc(NC(=O)c3ccc(F)cc3)cc2)c2ccc(C)cc2n1 [Example 230, 4-fluoro-N-[4-({[7-methyl-2-(methylamino)quinazolin-4-yl]amino}methyl)phenyl]benzamide]",
> 5010,,,"Cc1ccc2c(NCc3ccc(NC(=O)c4ccc(F)cc4)cc3)nc(N3CCNC(C)(C)C3)nc2c1 [Example 236, N-[4-({[2-(3,3-dimethylpiperazin-1-yl)-7-methylquinazolin-4-yl]amino}methyl)phenyl]-4-fluorobenzamide]",
> 1440,,,"CNc1nc(NCc2ccc(NC(=O)c3ccc(Cl)nc3)cc2)c2ccc(C)cc2n1 [Example 264, 6-chloro-N-[4-({[7-methyl-2-(methylamino)quinazolin-4-yl]amino}methyl)phenyl]nicotinamide]",
